Measured values reported in PMC12152883, “Bile acids inhibit equilibrative adenosine transport to alter adenosine receptor signaling in cholestasis” (The Journal of Biological Chemistry, 2025).
Where “and” joins values, the source holds several entries; their conditions need not be identical. Equal values may be shown once. Read-outs that look alike come from different tables or passages of the source.

How the values were obtained:
HepG2 cell line = assay: 3H-nucleoside uptake inhibition by BAs in HepG2 cell line; assay type: cell-based; conditions: BA 100 μM; for % Inhibition of Ado uptake, HepG2 cell line, Sodium buffer / % Inhibition of Ado uptake, HepG2 cell line, Sodium-free buffer: 3H-Ado 0.02 μM; for extent of inhibition of guanosine transport, HepG2 cells: 3H-guanosine 0.02 μM, Na+-free
Text: In the presence of multiple substrates with similar affinities, the abundant substrate molecules can compete for binding to the transport sites, reducing the transport of the limiting substrate molecules ([31]). […] We tested the possibility of BA-mediated nucleoside transport inhibition using a HeLa cell line (expressing ENTs (ENT1, ENT2) ([32])) and a HepG2 cell line (expressing both ENTs (ENT1, ENT2) and CNTs (CNT1, CNT2) ([33])) to conduct Ado uptake inhibition assays in Na^+-containing (where both ENTs and CNTs are capable of transport) and Na^+-free (only ENTs are capable of transport) buffers (Fig. 3 and Table 1).
The bars represent the mean ± SD (n = 3). A representative experiment from 3 to 5 independent experiments is presented. Statistical analysis was performed using one-way ANOVA with Dunnett’s multiple comparisons test; ∗p < 0.032, ∗∗p < 0.0021, ∗∗∗p < 0.0002.
HeLa (CCL-2) and HepG2 (HB_8065) were procured from ATCC. Both cell lines were cultured in Eagle's minimum essential medium and Dulbecco's modified Eagle's medium, respectively, supplemented with 10% fetal bovine serum and penicillin-streptomycin (1X). After cells were tested free for mycoplasma contamination, they were plated in 24-well plates, and transport assays were conducted when the cells were 80% confluent. The cells were briefly rinsed with PBS, and then the uptake of radiolabeled substrates was measured after a 5 min incubation in sodium containing (130 mM NaCl, 20 mM Tris–HCl, 3 mM K2HPO4, 1 mM MgCl2.6H2O, 2 mM CaCl2, 5 mM glucose, pH 7.4) or sodium-free (130 mM N-methyl-D-glucamin, 20 mM Tris–HCl, 3 mM K2HPO4, 1 mM MgCl2.6H2O, 2 mM CaCl2, 5 mM glucose, pH 7.4) transport buffers at 37 °C. Uptake was terminated by washing the cells three times with ice-cold arrest buffer containing 20 mM uridine. The cells were shaken for 30 min in 10% SDS for complete dissolution, after which the radioactivity was quantified with a Beckman liquid scintillation counter. The data are presented as the mean ± SD (n = 3).

ENT3 = molecular target: T1, ENT3 (Homo sapiens, UniProt Q9BZD2); assay: Inhibition of 3H-nucleoside influx by BAs in ENT3-expressing Xenopus oocytes; assay type: cell-based
T1 construct: plasma membrane–directed ENT3 with a truncated N-terminus (that harbors lysosomal targeting motif); expressed in transfected cells; host or cells: Xenopus laevis oocytes injected with in vitro-transcribed mRNA from pOX-Δ36hENT3
T1 sequence (Q9BZD2 with tags, fused parts or gaps): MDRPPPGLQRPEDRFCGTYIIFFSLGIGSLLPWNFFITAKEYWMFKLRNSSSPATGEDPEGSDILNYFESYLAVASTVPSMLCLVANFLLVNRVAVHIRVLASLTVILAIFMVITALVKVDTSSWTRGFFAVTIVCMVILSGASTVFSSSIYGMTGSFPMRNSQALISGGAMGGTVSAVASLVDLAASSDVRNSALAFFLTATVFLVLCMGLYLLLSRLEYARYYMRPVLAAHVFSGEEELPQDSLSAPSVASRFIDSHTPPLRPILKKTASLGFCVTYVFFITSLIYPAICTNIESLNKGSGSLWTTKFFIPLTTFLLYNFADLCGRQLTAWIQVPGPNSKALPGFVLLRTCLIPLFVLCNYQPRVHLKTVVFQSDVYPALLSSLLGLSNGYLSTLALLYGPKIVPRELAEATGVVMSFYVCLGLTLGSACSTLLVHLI
Text: We expressed individual ENTs (ENT1, ENT2, and ENT3) in X. laevis oocytes (as described above) and analyzed the Ado influx from each of the ENTs in the presence of different BAs to better understand whether the inhibition profiles differ across human ENTs. […] We also conducted an analysis of the concentration-dependent inhibition of Ado transport to estimate the IC50 values of the BAs (Fig. 4, D–F and Table 2).
Inhibition of Ado influx in H2O- and ENT-injected oocytes by treatment with different BAs at 100 μM. D–F, concentration-dependent inhibition of Ado influx in ENT-injected oocytes by different BAs. The bars represent the mean ± SD (n = 8–12 oocytes). A representative experiment from 3 to 5 independent experiments is presented. Statistical analysis was performed using one-way ANOVA with Dunnett’s multiple comparisons test; ∗p < 0.032, ∗∗p < 0.0021, ∗∗∗∗p < 0.0001.
The generated pOX expression constructs were linearized with either the Not1 or Sac1 restriction enzymes. The digested products were purified via phenol‒chloroform extraction. The mRNAs were synthesized using mMESSAGE mMACHINE (Ambion) transcription kits according to the manufacturer’s instructions. The mRNAs were purified via lithium precipitation. Oocytes were procured from Ecocyte. Prior to experiments, procured oocytes were defolliculated by treating with collagenase A-OR II solution followed by washing with Barth’s solution. Following microscopic verification, selected oocytes were incubated to recover overnight at 25 °C in a shaker incubator. Fifty nanoliters (400–800 ng/μl) of equal amounts of mRNAs were injected into defolliculated oocytes the next day. Expression of plasmids was analyzed after RNA isolation from oocyte extracts and conducting qPCR analysis with gene-specific primers as described earlier ([30]). The injected oocytes were incubated at 15 °C for 24 h before transport assays were performed. […] Uptake was terminated by washing the oocytes three times with arrest buffer containing 20 mM uridine. Individual oocytes were shaken overnight in 10% SDS for complete dissolution, and then the radioactivity was quantified with a Beckman liquid scintillation counter. The data are presented as the mean ± SD (n = 8–12 oocytes). A representative experiment from 3 to 5 independent experiments is presented.

[1] = 3H-Ado 20 μM, sodium-free buffer, read-out: ENT3 IC50 (Ado uptake)
[2] = BA 100 μM, 3H-Ado 20 μM, sodium-free buffer

SMILES	% Inhibition of Ado uptake, HepG2 cell line, Sodium buffer (HepG2 cell line)	% Inhibition of Ado uptake, HepG2 cell line, Sodium-free buffer (HepG2 cell line) [%]	extent of inhibition of guanosine transport, HepG2 cells (HepG2 cell line) [%]	IC50 (ENT3; [1]) [nM]	ENT3 % uptake inhibition (Ado) (ENT3; [2])	IC50 (ENT3) [nM]	inhibition of guanosine transport activity of ENT3 (ENT3; BA 100 μM, 3H-guanosine 20 μM)
C[C@H](CCC(=O)O)[C@H]1CC[C@H]2[C@@H]3[C@H](O)C[C@@H]4C[C@H](O)CC[C@]4(C)[C@H]3C[C@H](O)[C@]12C [CA, cholic acid]	n.s.	59.86 ± 0.19	12	1200 ± 400	77.1%		
C[C@H](CCC(=O)NCCS(=O)(=O)O)[C@H]1CC[C@H]2[C@@H]3[C@H](O)C[C@@H]4C[C@H](O)CC[C@]4(C)[C@H]3C[C@H](O)[C@]12C [TCA, taurocholic acid]	n.s.	62.36 ± 0.03	17.5		72.3%	52600 ± 22200	
C[C@H](CCC(=O)O)[C@H]1CC[C@H]2[C@@H]3CC[C@@H]4C[C@H](O)CC[C@]4(C)[C@H]3C[C@H](O)[C@]12C [DCA, deoxycholic acid]	n.s.	49.36 ± 0.02	12	600 ± 100	79% and 79.9%		inhibited
